Data reported in US20250213475A1, “LIPOSOMAL COMPOSITIONS” (R.G.C.C. Holdings AG, priority 2022, published 2025).

Columns and labels:
[1] = Encapsulation efficacy, indirect from free drug in supernatant by UV/VIS; assay type: physicochemical; conditions: analogue 1 mg/mL
Method: At the end of the above encapsulation process, the solution was centrifuged at 15.000 rpm for 20 minutes and the supernatant was kept for indirect encapsulation determination. The precipitate was lyophilized and kept for further analysis and characterization.
The supernatants after each centrifugation were kept and used to evaluate the amount of the free drug. Subtracting the amount of the free drug at the supernatant from the total added drug, the rest is considered as encapsulated. Briefly, from each solution samples were collected in order to prepare solutions, which were then evaluated with UV/VIS spectrometry. Based on standard curves, in which the different nucleosides were measured in solution on a UV-VIS spectrometer, different the remaining quantity was calculated. The encapsulation efficacy was measured then based on the following equation:
[formula] Quantity of the Nucleoside Analogue in the liposome=(Quantity of the Nucleoside Analogue initially added−Quantity of the Nucleoside Analogue in the supernatant).
For example, for {[2-(6-amino-9H-purin-9-yl)quinazolin-4-yl]oxy}phosphonic acid system code 1, after the centrifugation, we keep the supernatant from which, a fraction is collected to prepare a solution with targeted concertation of 10 ppm. Based on the Dilution Equation, C1V1=C2V2, C1=1000, because we consider, at the initial solution that the concentration is 1000 ppm (based on the fact that all of the added nucleoside analogue would be in the supernatant) • C2: is the targeted concentration, here 10 ppm • V2: volume of the final solution, here 10 mL
Thus, we take 100 uL from the supernatant and we dilute it to 10 mL final volume. The sample is quantified by UV/VIS spectrometry and we calculate the actual concentration of the sample. The concentration is converted to mass and we can estimate the final mass of the nucleoside analogue in the supernatant and in the liposome.

[2] = tested on: human lung cancer COLO699N cell line; assay: AlamarBlue cytotoxicity assay, COLO699N; assay type: cell-based; conditions: 0.01 μM to 10 μM, 24 h, 48 h and 72 h
Method: (§1) All cell lines were maintained at 37° C. in a humidified 5% CO2 atmosphere. AlamarBlue assay was performed to assess cell viability. The viable cells were seeded at a density of 2×10^4 (200 μl/well) in 96-well plate and incubated at 37° C. and 5% CO2 for 24 h to form a cell monolayer. After 24 h of incubation, supernatant on the monolayer was aspirated and 200 μl of medium and varying concentrations of the substances were added and incubated for 24 h, 48 h and 72 h time points. […] Fluorescence was measured at 560 nm excitation and 590 nm emission wavelength. The experiment was performed in triplicates. The average fluorescence was calculated for each triplicate. One sample t-test was used to determine differences in the mean by comparing the treated samples with the untreated controls. P values <0.05 were considered to indicate a statistically significant difference.

[3] = tested on: human colorectal carcinoma HCT116 cell line; assay: AlamarBlue cytotoxicity assay, HCT116; assay type: cell-based; conditions: HCT116, 0.01 μM to 10 μM, 24 h, 48 h and 72 h
Method: as §1

[4] = tested on: human breast adenocarcinoma (luminal type) MCF7 cell line; assay: AlamarBlue cytotoxicity assay, MCF7; assay type: cell-based; conditions: MCF7, 0.01 μM to 10 μM, 24 h, 48 h and 72 h
Method: as §1

[5] = tested on: human breast adenocarcinoma (triple negative) MDA-MB-231 cell line; assay: AlamarBlue cytotoxicity assay, MDA-MB-231; assay type: cell-based; conditions: MDA-MB-231, 0.01 μM to 10 μM, 24 h, 48 h and 72 h
Method: The human breast adenocarcinoma (luminal type) MCF7 cell line (ECACC 86012803), human breast adenocarcinoma (triple negative) MDA-MB-231 cell line (ECACC 92020424), human colorectal carcinoma HCT116 cell line (ECACC 91091005) and human lung cancer COLO699N cell line (ECACC 93052608) were culture in RPMI 1640 medium Catalog #R0883 (Sigma-Aldrich, Darmstadt, Germany) supplemented with 10% fetal bovine serum Catalog #FB-1001/500 (BioSera, Nuaille, France) and 1% L-glutamine Catalog #G7513-100ML (Sigma-Aldrich, Darmstadt, Germany). All cell lines were maintained at 37° C. in a humidified 5% CO2 atmosphere. AlamarBlue assay was performed to assess cell viability. The viable cells were seeded at a density of 2×10^4 (200 μl/well) in 96-well plate and incubated at 37° C. and 5% CO2 for 24 h to form a cell monolayer. After 24 h of incubation, supernatant on the monolayer was aspirated and 200 μl of medium and varying concentrations of the substances were added and incubated for 24 h, 48 h and 72 h time points. […] Fluorescence was measured at 560 nm excitation and 590 nm emission wavelength. […] The average fluorescence was calculated for each triplicate. […] Results were calculated using the Microsoft Excel 2016. […]

[6] = liposomal system code 2, DSPE-PEG:CHOL
[7] = liposomal system code 3, DSPE-PEG:PC:CHOL
[8] = liposomal system code 1, DSPE-PEG:CHOL:OA
[9] = liposomal system code 4, DSPE-PEG:CHOL:OA:PC
[10] = liposomal system code 5, DSPE-PEG:OA

Structure (SMILES)	Encapsulation Efficacy (EE %) [1, 6] [%]	Encapsulation Efficacy (EE %) [1, 7] [%]	Encapsulation Efficacy (EE %) [1, 8] [%]	Encapsulation Efficacy (EE %) [1, 9] [%]	Encapsulation Efficacy (EE %) [1, 10] [%]	cytotoxic effect (in words) [2]	cytotoxic effect (in words) [3]	cytotoxic effect (in words) [4]	cytotoxic effect (in words) [5]
CC(=O)Nc1ccn(-c2nc(O)c3ccccc3n2)c(=O)n1 [N-[1-(4-hydroxyquinazolin-2-yl)-2-oxo-1,2-dihydropyrimidin-4-yl]acetamide]	58.1	89.9	–	–	–	–	–	–	–
Nc1ncnc2c1ncn2-c1nc(O)c2ccccc2n1 [2-(6-Amino-9H-purin-9-yl)quinazolin-4-ol, 2-(6-amino-9H-purin-9-yl)quinazolin-4-ol]	55.2	65.1	55.2	54.4	65.6	no statistically significant cytotoxic effect	no statistically significant cytotoxic effect	no statistically significant cytotoxic effect	no statistically significant cytotoxic effect
Nc1ccn(-c2nc(O)c3ccccc3n2)c(=O)n1 [4-amino-1-(4-hydroxyquinazolin-2-yl)-1,2-dihydropyrimidin-2-one]	73.6	76.2	–	–	–	–	–	–	–
Nc1ncnc2c1ncn2-c1nc(OP(=O)(O)O)c2ccccc2n1 [{[2-(6-amino-9H-purin-9-yl)quinazolin-4-yl]oxy}phosphonic acid]	76.8	50.0	60.8	60.8	70.4	–	–	–	–
